Test results: publication PMC11864979, “First-in-class ultralong-target-residence-time p38α inhibitors as a mitosis-targeted therapy for colorectal cancer” (Nature Cancer, 2025)
Like-named read-outs stand apart in the source and are kept apart here.

Assays:
Experiment in all cases: selectivity profiling in a panel of 340 wild-type kinases (Reaction Biology Europe)
Type in all cases: binding
340 wild-type kinases [1] = biological target: T1, 340 wild-type kinases (Homo sapiens, UniProt Q8IU85)
T1 construct: purchased Reaction Biology Europe

340 wild-type kinases [2] = biological target: T2, 340 wild-type kinases (Homo sapiens, UniProt Q15303)
T2 construct: purchased Reaction Biology Europe

340 wild-type kinases [3] = biological target: T3, 340 wild-type kinases (Homo sapiens, UniProt O60285)
T3 construct: purchased Reaction Biology Europe
T3 sequence (O60285 1-661): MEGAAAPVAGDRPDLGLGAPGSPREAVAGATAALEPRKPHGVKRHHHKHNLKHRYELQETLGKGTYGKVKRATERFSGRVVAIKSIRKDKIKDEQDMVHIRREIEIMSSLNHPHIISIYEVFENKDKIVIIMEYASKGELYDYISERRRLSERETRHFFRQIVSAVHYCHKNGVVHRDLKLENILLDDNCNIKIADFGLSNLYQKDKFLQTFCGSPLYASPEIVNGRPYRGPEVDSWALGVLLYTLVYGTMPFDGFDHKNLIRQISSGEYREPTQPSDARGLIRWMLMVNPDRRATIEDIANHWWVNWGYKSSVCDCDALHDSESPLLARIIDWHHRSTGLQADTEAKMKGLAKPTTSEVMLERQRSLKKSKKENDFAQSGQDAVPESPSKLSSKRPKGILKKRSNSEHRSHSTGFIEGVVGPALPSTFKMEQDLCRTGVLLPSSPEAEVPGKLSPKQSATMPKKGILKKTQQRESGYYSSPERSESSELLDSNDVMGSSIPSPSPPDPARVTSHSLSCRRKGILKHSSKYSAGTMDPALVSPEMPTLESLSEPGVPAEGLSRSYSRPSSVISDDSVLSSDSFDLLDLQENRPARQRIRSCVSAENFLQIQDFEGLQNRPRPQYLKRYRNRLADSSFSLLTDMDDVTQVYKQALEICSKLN

340 wild-type kinases [4] = biological target: T4, 340 wild-type kinases (Homo sapiens, UniProt P30530)
T4 construct: purchased Reaction Biology Europe
T4 sequence (P30530 26-894): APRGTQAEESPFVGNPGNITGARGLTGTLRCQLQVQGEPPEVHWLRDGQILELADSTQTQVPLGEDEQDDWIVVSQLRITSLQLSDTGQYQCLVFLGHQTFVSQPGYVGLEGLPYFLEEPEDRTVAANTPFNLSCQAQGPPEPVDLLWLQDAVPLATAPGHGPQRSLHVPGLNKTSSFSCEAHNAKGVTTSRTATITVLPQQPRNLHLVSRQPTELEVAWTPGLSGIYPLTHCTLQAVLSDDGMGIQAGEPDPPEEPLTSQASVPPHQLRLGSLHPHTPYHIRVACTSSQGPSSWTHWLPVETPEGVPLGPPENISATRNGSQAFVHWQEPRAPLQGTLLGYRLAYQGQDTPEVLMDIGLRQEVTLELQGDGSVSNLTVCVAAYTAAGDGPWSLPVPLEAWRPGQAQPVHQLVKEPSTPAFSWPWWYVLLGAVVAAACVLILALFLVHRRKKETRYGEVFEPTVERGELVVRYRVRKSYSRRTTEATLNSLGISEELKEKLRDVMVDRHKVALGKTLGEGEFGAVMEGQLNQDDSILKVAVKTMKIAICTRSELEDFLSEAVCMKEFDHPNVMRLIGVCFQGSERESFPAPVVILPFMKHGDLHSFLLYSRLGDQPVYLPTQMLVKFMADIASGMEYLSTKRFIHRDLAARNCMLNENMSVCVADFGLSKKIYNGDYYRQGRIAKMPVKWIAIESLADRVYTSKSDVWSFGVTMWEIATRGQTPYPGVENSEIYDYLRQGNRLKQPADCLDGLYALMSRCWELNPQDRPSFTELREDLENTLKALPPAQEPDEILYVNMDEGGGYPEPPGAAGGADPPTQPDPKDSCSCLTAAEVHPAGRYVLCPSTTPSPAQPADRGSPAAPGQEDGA

340 wild-type kinases [5] = biological target: T5, 340 wild-type kinases (Homo sapiens, UniProt Q8TDC3)
T5 construct: purchased Reaction Biology Europe
T5 sequence (Q8TDC3 1-778): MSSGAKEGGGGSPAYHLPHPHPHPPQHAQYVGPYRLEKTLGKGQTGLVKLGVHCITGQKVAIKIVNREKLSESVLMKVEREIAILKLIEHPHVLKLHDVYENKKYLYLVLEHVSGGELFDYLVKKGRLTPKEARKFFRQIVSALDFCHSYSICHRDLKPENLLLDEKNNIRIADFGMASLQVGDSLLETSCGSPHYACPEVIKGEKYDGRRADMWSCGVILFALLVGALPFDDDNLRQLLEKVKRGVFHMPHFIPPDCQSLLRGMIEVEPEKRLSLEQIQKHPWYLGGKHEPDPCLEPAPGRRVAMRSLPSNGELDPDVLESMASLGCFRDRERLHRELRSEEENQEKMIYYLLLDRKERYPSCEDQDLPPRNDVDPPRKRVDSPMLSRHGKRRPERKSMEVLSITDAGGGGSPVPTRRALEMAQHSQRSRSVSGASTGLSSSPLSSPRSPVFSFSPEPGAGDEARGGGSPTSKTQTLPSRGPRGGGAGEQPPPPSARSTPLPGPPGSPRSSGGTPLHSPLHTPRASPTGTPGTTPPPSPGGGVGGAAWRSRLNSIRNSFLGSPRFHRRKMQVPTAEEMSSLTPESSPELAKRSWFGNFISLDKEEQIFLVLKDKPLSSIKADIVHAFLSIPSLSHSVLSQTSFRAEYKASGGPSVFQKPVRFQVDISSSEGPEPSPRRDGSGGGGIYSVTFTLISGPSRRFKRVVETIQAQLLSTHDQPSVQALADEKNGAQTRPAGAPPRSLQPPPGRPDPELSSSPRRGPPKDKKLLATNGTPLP

340 wild-type kinases [6] = biological target: T6, 340 wild-type kinases (Homo sapiens, UniProt P35916)
T6 construct: purchased Reaction Biology Europe
T6 sequence (P35916 25-1363): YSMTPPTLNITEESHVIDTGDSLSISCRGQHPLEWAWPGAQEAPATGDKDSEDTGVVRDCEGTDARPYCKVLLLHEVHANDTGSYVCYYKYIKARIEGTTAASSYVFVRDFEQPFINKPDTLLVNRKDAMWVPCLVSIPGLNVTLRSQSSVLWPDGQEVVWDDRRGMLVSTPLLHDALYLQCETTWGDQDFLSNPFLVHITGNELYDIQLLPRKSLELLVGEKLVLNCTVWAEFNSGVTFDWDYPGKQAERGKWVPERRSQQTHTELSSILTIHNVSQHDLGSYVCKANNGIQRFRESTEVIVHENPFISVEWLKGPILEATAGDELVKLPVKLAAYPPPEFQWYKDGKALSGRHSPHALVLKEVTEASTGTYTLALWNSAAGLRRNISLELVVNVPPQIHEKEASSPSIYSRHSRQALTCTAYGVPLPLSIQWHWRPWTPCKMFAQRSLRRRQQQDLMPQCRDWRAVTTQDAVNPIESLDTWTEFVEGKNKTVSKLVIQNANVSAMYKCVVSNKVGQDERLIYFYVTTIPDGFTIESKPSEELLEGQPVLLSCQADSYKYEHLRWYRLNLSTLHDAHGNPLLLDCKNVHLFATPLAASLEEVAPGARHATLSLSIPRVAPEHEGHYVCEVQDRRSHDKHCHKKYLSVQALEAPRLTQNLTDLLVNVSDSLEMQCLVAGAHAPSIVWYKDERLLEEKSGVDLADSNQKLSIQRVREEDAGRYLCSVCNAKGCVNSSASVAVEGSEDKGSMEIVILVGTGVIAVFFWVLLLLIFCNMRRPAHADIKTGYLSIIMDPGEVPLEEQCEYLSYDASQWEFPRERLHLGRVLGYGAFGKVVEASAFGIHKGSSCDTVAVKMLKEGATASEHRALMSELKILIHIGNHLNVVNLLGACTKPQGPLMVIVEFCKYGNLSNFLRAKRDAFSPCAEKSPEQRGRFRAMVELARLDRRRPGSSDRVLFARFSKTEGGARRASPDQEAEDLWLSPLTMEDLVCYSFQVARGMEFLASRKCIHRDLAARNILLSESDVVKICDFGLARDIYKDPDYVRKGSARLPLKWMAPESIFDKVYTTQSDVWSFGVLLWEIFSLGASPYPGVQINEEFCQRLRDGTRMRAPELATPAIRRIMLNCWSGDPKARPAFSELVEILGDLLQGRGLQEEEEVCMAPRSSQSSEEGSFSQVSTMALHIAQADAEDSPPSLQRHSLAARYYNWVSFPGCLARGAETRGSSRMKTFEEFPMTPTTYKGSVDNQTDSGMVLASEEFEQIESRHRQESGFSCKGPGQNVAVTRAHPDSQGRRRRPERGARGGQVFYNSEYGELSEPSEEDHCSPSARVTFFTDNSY

T1 sequence (Q8IU85 whole entry): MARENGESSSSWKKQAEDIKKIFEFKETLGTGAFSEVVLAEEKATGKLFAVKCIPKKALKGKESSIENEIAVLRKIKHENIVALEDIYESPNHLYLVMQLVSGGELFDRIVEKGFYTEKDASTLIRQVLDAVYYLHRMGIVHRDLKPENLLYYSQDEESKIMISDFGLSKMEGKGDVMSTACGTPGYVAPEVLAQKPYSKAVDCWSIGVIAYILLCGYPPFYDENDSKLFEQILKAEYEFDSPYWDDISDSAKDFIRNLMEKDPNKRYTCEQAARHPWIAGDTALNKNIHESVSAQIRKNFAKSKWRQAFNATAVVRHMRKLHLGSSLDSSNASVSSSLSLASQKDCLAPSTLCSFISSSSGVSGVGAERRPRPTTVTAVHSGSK
T2 sequence (Q15303 26-1308): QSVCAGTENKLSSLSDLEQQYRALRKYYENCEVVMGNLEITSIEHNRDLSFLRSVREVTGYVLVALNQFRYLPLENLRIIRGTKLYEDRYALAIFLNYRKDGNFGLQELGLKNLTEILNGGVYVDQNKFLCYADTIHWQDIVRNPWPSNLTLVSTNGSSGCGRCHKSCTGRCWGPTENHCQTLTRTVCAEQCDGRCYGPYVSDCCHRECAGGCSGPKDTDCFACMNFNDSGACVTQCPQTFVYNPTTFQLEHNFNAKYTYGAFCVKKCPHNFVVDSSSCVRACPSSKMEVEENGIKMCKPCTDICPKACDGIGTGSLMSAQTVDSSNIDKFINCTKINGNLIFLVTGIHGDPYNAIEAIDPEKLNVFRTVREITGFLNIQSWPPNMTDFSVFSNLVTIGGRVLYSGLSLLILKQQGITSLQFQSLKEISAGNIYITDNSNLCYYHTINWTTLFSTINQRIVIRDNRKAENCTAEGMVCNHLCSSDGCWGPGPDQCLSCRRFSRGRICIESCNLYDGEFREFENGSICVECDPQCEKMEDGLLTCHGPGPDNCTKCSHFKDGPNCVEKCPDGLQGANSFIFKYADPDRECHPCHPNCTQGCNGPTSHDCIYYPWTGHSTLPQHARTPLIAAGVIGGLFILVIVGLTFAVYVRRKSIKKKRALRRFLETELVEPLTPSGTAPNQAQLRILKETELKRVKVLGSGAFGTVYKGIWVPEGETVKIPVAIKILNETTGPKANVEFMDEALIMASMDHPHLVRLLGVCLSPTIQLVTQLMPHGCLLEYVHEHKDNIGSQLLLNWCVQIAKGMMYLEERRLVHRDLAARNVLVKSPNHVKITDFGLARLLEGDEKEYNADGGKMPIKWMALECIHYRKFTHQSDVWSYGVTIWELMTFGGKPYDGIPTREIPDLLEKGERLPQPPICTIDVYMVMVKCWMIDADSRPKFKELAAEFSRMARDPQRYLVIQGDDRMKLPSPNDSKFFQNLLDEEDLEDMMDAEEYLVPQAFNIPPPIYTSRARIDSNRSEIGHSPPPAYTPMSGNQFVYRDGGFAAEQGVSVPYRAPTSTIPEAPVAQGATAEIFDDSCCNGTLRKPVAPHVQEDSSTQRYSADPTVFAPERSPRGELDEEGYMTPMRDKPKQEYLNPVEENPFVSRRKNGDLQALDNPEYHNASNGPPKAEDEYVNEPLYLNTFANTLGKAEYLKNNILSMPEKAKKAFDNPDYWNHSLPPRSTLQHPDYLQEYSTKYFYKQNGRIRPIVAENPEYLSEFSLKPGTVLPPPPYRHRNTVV

In the case of `CNC(=O)c1ccc2c(c1)C(=O)c1ccc(Nc3ccc(F)c(NC(=O)C4CC4)c3)cc1CC2` [Compound 2015], the remaining activity at 0.2 µM (340 wild-type kinases [1]; 0.2 µM 2015, read-out: CAMK1D residual activity) is reported as 100%, the remaining activity at 1 µM (340 wild-type kinases [1]; 1 µM 2015, read-out: CAMK1D residual activity) is reported as 90.6% and the remaining activity at 0.2 µM (340 wild-type kinases [1]; CAMK1D, 0.2 µM, read-out: residual activity) is reported as 100%. The remaining activity at 1 µM (340 wild-type kinases [1]; CAMK1D, 1 µM, read-out: residual activity) was 90.6%, the remaining activity at 0.2 µM (340 wild-type kinases [2]; 0.2 µM 2015, read-out: ERBB4 residual activity) was 120% and the remaining activity at 1 µM (340 wild-type kinases [2]; 1 µM 2015, read-out: ERBB4 residual activity) was 101%. For the same compound, the remaining activity at 0.2 µM (340 wild-type kinases [2]; ERBB4, 0.2 µM, read-out: residual activity) was 120%, the remaining activity at 1 µM (340 wild-type kinases [2]; ERBB4, 1 µM, read-out: residual activity) was 101% and the remaining activity at 0.2 µM (340 wild-type kinases [3]; 0.2 µM 2015, read-out: ARK5 residual activity) was 96.7%. For the same compound, the remaining activity at 1 µM (340 wild-type kinases [3]; 1 µM 2015, read-out: ARK5 residual activity) was 98.5%, the remaining activity at 0.2 µM (340 wild-type kinases [3]; ARK5, 0.2 µM, read-out: residual activity) was 96.7% and the remaining activity at 1 µM (340 wild-type kinases [3]; ARK5, 1 µM, read-out: residual activity) was 98.5%. The remaining activity at 0.2 µM (340 wild-type kinases [4]; 0.2 µM 2015, read-out: AXL residual activity) was 106%, the remaining activity at 1 µM (340 wild-type kinases [4]; 1 µM 2015, read-out: AXL residual activity) was 92.6% and the remaining activity at 0.2 µM (340 wild-type kinases [4]; AXL, 0.2 µM, read-out: residual activity) was 106%. The remaining activity at 1 µM (340 wild-type kinases [4]; AXL, 1 µM, read-out: residual activity) was 92.6%, the remaining activity at 0.2 µM (340 wild-type kinases [5]; 0.2 µM 2015, read-out: BRSK1 residual activity) was 99.5% and the remaining activity at 1 µM (340 wild-type kinases [5]; 1 µM 2015, read-out: BRSK1 residual activity) was 90.5%. The remaining activity at 0.2 µM (340 wild-type kinases [5]; BRSK1, 0.2 µM, read-out: residual activity) was 99.5%, the remaining activity at 1 µM (340 wild-type kinases [5]; BRSK1, 1 µM, read-out: residual activity) was 90.5% and the remaining activity at 0.2 µM (340 wild-type kinases [6]; 0.2 µM 2015, read-out: VEGFR3 residual activity) was 109%. The remaining activity at 1 µM (340 wild-type kinases [6]; 1 µM 2015, read-out: VEGFR3 residual activity) was 94.2%, the remaining activity at 0.2 µM (340 wild-type kinases [6]; VEGFR3, 0.2 µM, read-out: residual activity) was 109% and the remaining activity at 1 µM (340 wild-type kinases [6]; VEGFR3, 1 µM, read-out: residual activity) was 94.2%.
